Measurements published in US10654818B2, “Furane derivatives as inhibitors of ATAD2” (BAYER PHARMA AKTIENGESELLSCHAFT, priority 2015, dated 2020).

molecular target: T1, recombinant, N-terminally GST-tagged ATAD2 bromodomain amino acids 981-1108 (Homo sapiens, UniProt Q6PL18); experiment: TR-FRET assay: disruption of the interaction between ATAD2 and acetylated Histone H4 (Ac-H4) peptide; assay type: binding; conditions: inhibition of ATAD2/Ac-H4 complex formation; 10 nM ATAD2, 50 nM Ac-H4 peptide
T1 construct: ATAD2 bromodomain amino acids 981-1108; made in house; host or cells: E. coli
T1 sequence (Q6PL18 981-1108): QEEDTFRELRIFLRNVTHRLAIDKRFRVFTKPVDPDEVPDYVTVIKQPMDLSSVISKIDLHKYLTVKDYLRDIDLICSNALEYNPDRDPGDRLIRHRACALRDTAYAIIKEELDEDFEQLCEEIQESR
Text: The ability of the compounds described in the present invention to disrupt the interaction between ATAD2 and acetylated Histone H4 (Ac-H4) was used as quantitative measure of their ATAD2-binding affinities.
To this end a TR-FRET assay which detects the binding of an Ac-H4-derived synthetic peptide (purchased from e.g. Biosyntan (Berlin, Germany)) of sequence HSGRGKGGGGKGLGK(Ac)GGAKRHRK-Biotin to recombinant, N-terminally GST-tagged ATAD2 bromodomain amino acids 981-1108. The protein was produced in-house via E. coli expression followed by GSH-Sepharose affinity- and Superdex S200-size exclusion chromatography purification.
Typically, 11 different concentrations of each compound (0.1 nM, 0.33 nM, 1.1 nM, 3.8 nM, 13 nM, 44 nM, 0.15 μM, 0.51 μM, 1.7 μM, 5.9 μM and 20 μM) were tested in duplicate within the same microtiter plate. To this end, 100-fold concentrated compound solutions (in DMSO) were previously prepared with a Precision Pippeting System (BioTek) by serial dilution (1:3.4) of 2 mM stocks in clear, low-volume 384-well microtiter source plates (Greiner Bio-One). Subsequently, 50 nl of compounds were transferred into black, low-volume test plates from the same supplier using a Hummingbird capillary based liquid handling instrument (Digilab). Tests were started by the addition of 2 μl of 2.5-fold concentrated ATAD2 solution (25 nM=10 nM final concentration in the 5 μl assay volume) in aqueous assay buffer [50 mM HEPES pH 7.5, 50 mM potassium fluoride (KF), 100 mM sodium chloride (NaCl), 0.25 mM CHAPS, 0.05% bovine serum albumine (BSA) and 1 mM dithiothreitol (DTT)] to the compounds in the test plate with a Multidrop dispenser (Thermo-Fisher). Test plates were then incubated 10′ at 22° C., in order to allow pre-equilibration of putative compound-ATAD2 complexes. Subsequently, 3 μl of a 1.67-fold concentrated solution containing Ac-H4 peptide (83.5 nM=50 nM final concentration) and TR-FRET detection reagents [16.7 nM Anti-GST-XL665 (Cisbio), =10 nM final concentration and 4.17 nM Lance EU W-1024 Streptavidin Europium Chelate (Perkin-Elmer)=2.5 nM final concentration were dispensed into the plates.
The mixture was further incubated in the dark for 1 hour at 22° C. Finally the inhibition of the formation of ATAD2/Ac-H4 complexes was assessed by measurement of the resonance energy transfer from the Streptavidin-Eu-Chelate to the anti-GST-XL665 antibody present in the reaction. To this end, the fluorescence emissions at 622 nm and 665 nm after excitation at 337 nm were measured in a TR-FRET reader, e.g. a Rubystar or Pherastar (both from BMG Lab Technologies) or a Viewlux (Perkin-Elmer) and the ratio of the emissions at 665 nm and at 622 nm was taken as indicator for the amount of ATAD2/Ac-H4 complexes in equilibrium.
The data were normalized using two sets of control wells (16 each). The first accounted for 100% ATAD2/Ac-H4 binding (0% inhibition), and contained all reaction components but DMSO instead of inhibitors. The second represented 0% ATAD2/Ac-H4 binding (100% inhibition), and included all assay components except ATAD2. IC50 values were calculated by fitting the normalized inhibition data to a 4-parameter logistic equation using either Screener software (Genedata) or a Bayer-proprietary analysis software.

Going from `Cc1ccc([C@@H](C)NCc2ccc(-c3ccc(Cl)c(C(=O)N[C@@H](CO)Cc4ccc(C#N)cc4N)c3)o2)cc1` [Example 41, N-[(2R)-1-(2-amino-4-cyanophenyl)-3-hydroxypropan-2-yl]-2-chloro-5-[5-({[(1R)-1-(4-methylphenyl)ethyl]amino}methyl)-2-furyl]benzamide] to `Cc1ccc([C@@H](C)NCc2ccc(-c3ccc(Cl)c(C(=O)N[C@@H](CO)Cc4cccc(C#N)c4)c3)o2)cc1` [Example 44, 2-chloro-N-[(2R)-1-(3-cyanophenyl)-3-hydroxypropan-2-yl]-5-[5-({[(1R)-1-(4-methylphenyl)ethyl]amino}methyl)-2-furyl]benzamide], the IC50 rises from 759 nM to 1600 nM (2.1-fold).

`CC(=O)NC[C@@H](Cc1ccc(C#N)cc1)NC(=O)c1cc(-c2ccc(CN[C@H](C)c3ccc(C)cc3)o2)ccc1Cl` [Example 43, N-[(2R)-1-acetamido-3-(4-cyanophenyl)propan-2-yl]-2-chloro-5-[5-({[(1R)-1-(4-methylphenyl)ethyl]amino}methyl)-2-furyl]benzamide] and `COC(=O)C[C@@H](Cc1ccc(C#N)cc1)NC(=O)c1cc(-c2ccc(CN[C@H](C)c3ccc(C)cc3)o2)ccc1Cl` [Example 50, methyl (3R)-3-({2-chloro-5-[5-({[(1R)-1-(4-methylphenyl)ethyl]amino}methyl)-2-furyl]benzoyl}amino)-4-(4-cyanophenyl)butanoate] are within 1.5-fold of each other in IC50: 1710 nM for the first, 1260 nM for the second.

Compared with `Cc1ccc([C@@H](C)NCc2ccc(-c3ccc(Cl)c(C(=O)N[C@H](Cc4ccc(C#N)cc4)[C@H](O)CC(C)C)c3)o2)cc1` [Example 45, 2-chloro-N-[(2R,3R)-1-(4-cyanophenyl)-3-hydroxy-5-methylhexan-2-yl]-5-[5-({[(1R)-1-(4-methylphenyl)ethyl]amino}methyl)-2-furyl]benzamide], `Cc1ccc([C@@H](C)NCc2ccc(-c3ccc(Cl)c(C(=O)N[C@H](Cc4ccc(C#N)cc4)[C@@H](O)CC(C)C)c3)o2)cc1` [Example 46, 2-chloro-N-[(2R,3S)-1-(4-cyanophenyl)-3-hydroxy-5-methylhexan-2-yl]-5-[5-({[(1R)-1-(4-methylphenyl)ethyl]amino}methyl)-2-furyl]benzamide] is 1.6-fold lower in IC50: 1800 nM for the first, 1100 nM for the second.

Compared with `Cc1ccc([C@@H](C)NCc2ccc(-c3ccc(Cl)c(C(=O)N[C@@H](CO)Cc4ccncc4)c3)o2)cc1` [Example 47, 2-chloro-N-[(2R)-1-hydroxy-3-(pyridin-4-yl)propan-2-yl]-5-[5-({[(1R)-1-(4-methylphenyl)ethyl]amino}methyl)-2-furyl]benzamide], `Cc1ccc([C@@H](C)NCc2ccc(-c3ccc(Cl)c(C(=O)N[C@@H](CO)Cc4ccc(C(N)=O)cc4)c3)o2)cc1` [Example 48, N-[(2R)-1-(4-carbamoylphenyl)-3-hydroxypropan-2-yl]-2-chloro-5-[5-({[(1R)-1-(4-methylphenyl)ethyl]amino}methyl)-2-furyl]benzamide] is 1.9-fold lower in IC50: 2100 nM for the first, 1080 nM for the second.

Compared with `Cc1ccc([C@@H](C)NCc2ccc(-c3ccc(Cl)c(C(=O)N[C@H](Cc4ccc(C#N)cc4)CN4CCCC4)c3)o2)cc1` [Example 49, 2-chloro-N-[(2R)-1-(4-cyanophenyl)-3-(pyrrolidin-1-yl)propan-2-yl]-5-[5-({[(1R)-1-(4-methylphenyl)ethyl]amino}methyl)-2-furyl]benzamide], `Cc1ccc([C@@H](C)NCc2ccc(-c3ccc(Cl)c(C(=O)N[C@@H](CNC4CCN(C)CC4)Cc4ccc(C#N)cc4)c3)o2)cc1` [Example 58, 2-chloro-N-{(2R)-1-(4-cyanophenyl)-3-[(1-methylpiperidin-4-yl)amino]propan-2-yl}-5-[5-({[(1R)-1-(4-methylphenyl)ethyl]amino}methyl)-2-furyl]benzamide] is 10-fold lower in IC50: 1760 nM for the first, 172 nM for the second.

`COC(=O)c1ccc(C[C@H](CO)NC(=O)c2cc(-c3ccc(CN[C@H](C)c4ccc(C)cc4)o3)ccc2Cl)cc1` [Example 51, methyl 4-[(2R)-2-({2-chloro-5-[5-({[(1R)-1-(4-methylphenyl)ethyl]amino}methyl)-2-furyl]benzoyl}amino)-3-hydroxypropyl]benzoate] and `Cc1ccc([C@@H](C)NCc2ccc(-c3ccc(Cl)c(C(=O)N[C@@H](CNS(C)(=O)=O)Cc4ccc(C#N)cc4)c3)o2)cc1` [Example 54, 2-chloro-N-{(2R)-1-(4-cyanophenyl)-3-[(methylsulfonyl)amino]propan-2-yl}-5-[5-({[(1R)-1-(4-methylphenyl)ethyl]amino}methyl)-2-furyl]benzamide] are within 1.5-fold of each other in IC50: 810 nM for the first, 705 nM for the second.

Compared with `Cc1ccc([C@@H](C)NCc2ccc(-c3ccc(Cl)c(C(=O)N[C@@H](CNCC(=O)N4CCNCC4)Cc4ccc(C#N)cc4)c3)o2)cc1` [Example 55, 2-chloro-N-[(2R)-1-(4-cyanophenyl)-3-{[2-oxo-2-(piperazin-1-yl)ethyl]amino}propan-2-yl]-5-[5-({[(1R)-1-(4-methylphenyl)ethyl]amino}methyl)-2-furyl]benzamide], `Cc1ccc([C@@H](C)NCc2ccc(-c3ccc(Cl)c(C(=O)N[C@@H](CNCC4CCNCC4)Cc4ccc(C#N)cc4)c3)o2)cc1` [Example 69] is 2.4-fold lower in IC50: 274 nM for the first, 112 nM for the second. The second is the more potent here.

`Cc1ccc([C@@H](C)NCc2ccc(-c3ccc(Cl)c(C(=O)N[C@@H](CNC(=O)C4CCNCC4)Cc4ccc(C#N)cc4)c3)o2)cc1` [Example 56, N-[(2R)-2-({2-chloro-5-[5-({[(1R)-1-(4-methylphenyl)ethyl]amino}methyl)-2-furyl]benzoyl}amino)-3-(4-cyanophenyl)propyl]piperidine-4-carboxamide] and `Cc1ccc([C@@H](C)NCc2ccc(-c3ccc(Cl)c(C(=O)N[C@@H](CNC(=O)CC4CCNCC4)Cc4ccc(C#N)cc4)c3)o2)cc1` [Example 57, 2-chloro-N-{(2R)-1-(4-cyanophenyl)-3-[(piperidin-4-ylacetyl)amino]propan-2-yl}-5-[5-({[(1R)-1-(4-methylphenyl)ethyl]amino}methyl)-2-furyl]benzamide] are within 1.5-fold of each other in IC50: 510 nM for the first, 520 nM for the second.

Compared with `Cc1ccc([C@@H](C)NCc2ccc(-c3ccc(Cl)c(C(=O)N[C@@H](CNC4CCN(Cc5ccccc5)CC4)Cc4ccc(C#N)cc4)c3)o2)cc1` [Example 59], `CCN1CCC(NC[C@@H](Cc2ccc(C#N)cc2)NC(=O)c2cc(-c3ccc(CN[C@H](C)c4ccc(C)cc4)o3)ccc2Cl)CC1` [Example 62] is 1.9-fold lower in IC50: 625 nM for the first, 332 nM for the second.

Compared with `Cc1ccc([C@@H](C)NCc2ccc(-c3ccc(Cl)c(C(=O)N[C@@H](CNCc4ccccc4)Cc4ccc(C#N)cc4)c3)o2)cc1` [Example 60], `Cc1ccc([C@@H](C)NCc2ccc(-c3ccc(Cl)c(C(=O)N[C@@H](CNCC(C)C)Cc4ccc(C#N)cc4)c3)o2)cc1` [Example 61] is 2.4-fold lower in IC50: 1900 nM for the first, 798 nM for the second.

Going from `Cc1ccc([C@@H](C)NCc2ccc(-c3ccc(Cl)c(C(=O)N[C@@H](CNC4CCN(CC(C)C)CC4)Cc4ccc(C#N)cc4)c3)o2)cc1` [Example 63] to `Cc1ccc([C@@H](C)NCc2ccc(-c3ccc(Cl)c(C(=O)N[C@@H](CN[C@H]4CCCN(C)C4)Cc4ccc(C#N)cc4)c3)o2)cc1` [Example 65], the IC50 falls from 320 nM to 121 nM (2.6-fold).

First: Cc1ccc([C@@H](C)NCc2ccc(-c3ccc(Cl)c(C(=O)N[C@@H](CNC4CCN(C(=O)OC(C)(C)C)CC4)Cc4ccc(C#N)cc4)c3)o2)cc1 [Example 64]
Second: Cc1ccc([C@@H](C)NCc2ccc(-c3ccc(Cl)c(C(=O)N[C@@H](CNC4CCNCC4)Cc4ccc(C#N)cc4)c3)o2)cc1 [Example 67]
The IC50 of the first is 4.5-fold higher: 1180 nM for the first, 265 nM for the second. The second is the more potent here.

First: Cc1ccc([C@@H](C)NCc2ccc(-c3ccc(Cl)c(C(=O)N[C@@H](CNCCC4CCNCC4)Cc4ccc(C#N)cc4)c3)o2)cc1 [Example 70]
Second: Cc1ccc([C@@H](C)NCc2ccc(-c3ccc(Cl)c(C(=O)N[C@@H](CNC4CCNCC4F)Cc4ccc(C#N)cc4)c3)o2)cc1 (some centres unmarked) [Example 73]
The IC50 of the first is 1.5-fold lower: 85.8 nM for the first, 132 nM for the second. The first is the more potent here.
